Experimental findings from patent publication US20250034116A1, “1,4-DIHETEROCYCLIC SUBSTITUTED AROMATIC RING OR AROMATIC HETEROCYCLIC COMPOUND AND USE THEREOF” (BeBetter Med Inc., priority 2022, published 2025) are described below.

In data set [1] the test system is CYP enzymes in human liver microsomes (HLM). Put plainly: Inhibition of 20-HETE production in human liver microsomes (HLM). In kind it is biochemical. The essentials:
(§1)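 LC-MS/MS read-out of 20-HETE formation, expressed as activity relative to no-inhibitor control and fitted to a Hill equation for IC50; percent inhibition also given at 1000, 500 or 100 nM. Enzyme sources: recombinant CYP4F2, recombinant CYP4A11, or human or mouse liver microsomes. Each is combined with compound and substrate (400 μM solution) and warmed 10 min at 37 °C, then incubated 25 min at 37 °C after adding NADPH (6 mM solution).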
(In general: Liver microsomes are vesicles of endoplasmic reticulum, rich in cytochrome P450 enzymes.)

For data set [2], the system named is CYP enzymes in mouse liver microsomes (MLM). Put plainly: Inhibition of 20-HETE production in mouse liver microsomes (MLM). The data set is classed as biochemical. The essentials: as §1
In data set [3] the target is recombinant CYP4A11 (rCYP4A11) (Homo sapiens (Human), UniProt Q02928). Put plainly: Inhibition of 20-HETE production by recombinant CYP4A11. The data set is classed as biochemical. The procedure:
Experimental principle: The inhibitory activity of 20-HETE production is evaluated by testing the inhibitory effects of the compound on human liver microsomes (HLM), rat liver microsomes (RLM), mouse liver microsomes (MLM), or […] CYP4 subtype enzymes (CYP4F2). This assay employs HLM, RLM, or MLM along with recombinant CYP4F2 (rCYP4F2) and recombinant CYP4A11 (rCYP4A11), which are […] CYP4 subtype enzymes, to detect the effects of the test compound at different concentrations on the metabolic rate of enzyme-specific substrates, to determine the inhibitory effects of the test compound on CYP enzymes in HLM, RLM, or MLM.
Experimental methods: Dissolve the test compound in DMSO, and subsequently dilute it with an acetonitrile and DMSO mixture (3:1). Add 2 μl of varying concentrations of the test compound and 100 μl of potassium phosphate buffer containing either liver microsomes or recombinant enzymes to a 96-well plate. After mixing well, transfer 30 μl to another well (in duplicate), add 15 μl of 400 μM substrate solution, and mix well again. Preheat at 37° C. for 10 minutes, and then add 15 μl of 6 mM NADPH and incubate at 37° C. for 25 minutes. After 25 minutes, add 160 μl of acetonitrile solution (containing 0.1 μg/ml internal standard) to stop the reaction. Mix well, centrifuge at 3500 g for 15 minutes, and then analyze the supernatant using LC-MS/MS.
Plot the compound concentration on the x-axis and the inhibition rate on the y-axis to draw the curve. Use GraphPad Prism 5 software to fit the curve and calculate the IC50. The formula is Y=Bottom+(Top−Bottom)/(1+10^((Log IC50−X)×HillSlope)). X represents the logarithmic concentration of the inhibitor, and Y represents the relative enzyme activity at a given inhibitor concentration (relative to the condition without the inhibitor).
Calculate the inhibition percentages at concentrations of 1000 nM, 500 nM, or 100 nM as well as the half-maximal inhibitory concentration (IC50) of the test compound from the above experiment.

Data set [4] in a line: Pharmacokinetic (PK) experiment, oral administration in rats. To be noted: 20 mg/kg. The data set is classed as in vivo, Male SD rats. Put shortly:
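Fasted male SD rats (180-250 g) received 20 mg/kg orally in 30% sulfobutylether-β-cyclodextrin. Tail-vein blood sampled 15 min to 24 h post-dose into K2-EDTA; plasma protein-precipitated with acetonitrile containing internal standard and analysed by LC-MS/MS.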

The test system of data set [5] is diet-induced obesity (DIO) mouse model. Put plainly: Experiment 4: weight loss of compound 2 compared with semaglutide in DIO mouse model. The data set is classed as in vivo, Male C57BL/6J mice. The source says:
Experiment 4 was to compare the weight loss effects of compound 2 with that of semaglutide in a diet-induced obesity (DIO) mouse model. Male C57BL/6J mice were purchased from Vital River Laboratories (Shanghai) Co., Ltd. and housed in a barrier system animal facility. Animals were randomly divided into 4 groups: normal control group, DIO model control group, compound 2 treatment group, and semaglutide treatment group, with 6 animals per group. The model control group and treatment groups were first fed with high-fat diet (HFD) for 18 weeks, after which the treatment groups were administered with compound 2 or semaglutide, respectively. Compound 2 was administered orally at a dose of 30 mg/kg once daily for 14 consecutive weeks, while semaglutide was administered subcutaneously at a dose of 30 nmol/kg once daily. After 7 weeks of semaglutide treatment, the semaglutide treatment group was switched to compound 2 treatment for another 7 weeks.

For data set [6], the system named is 20-HETE. Put plainly: Experiment 5: level of 20-HETE in DIO mouse model. As to conditions: DIO mice, single oral dose 50 mg/kg, 8 hours; most pronounced in the liver and kidneys. In kind it is in vivo, Male C57BL/6J mice. The procedure:
Experiment 5 was to investigate the effect of compound 2 on regulating the level of 20-HETE in a diet-induced obesity (DIO) mouse model. Male C57BL/6J mice were purchased from Guangdong Vital River Laboratory Animal Technology Co., Ltd. and housed in a barrier system animal facility. After 24 weeks of high-fat diet (HFD) induction, compound 2 was administered at a dose of 50 mg/kg once, and samples were collected after 8 hours to detect the level of 20-HETE. A solvent control group was also set up simultaneously, with 3 animals per group.

Data set [7] has as its system 20-HETE. The data set can be described thus: Experiment 6: level of 20-HETE in DIO rat model. In kind it is in vivo, Male SD rats. To be noted: DIO rats, single oral dose 25 mg/kg, 8 hours; most pronounced in the kidneys. The method, then:
Experiment 6 was to investigate the effect of compound 2 on regulating the level of 20-HETE in a diet-induced obesity (DIO) rat model. Male SD rats were purchased from Guangdong Vital River Laboratory Animal Technology Co., Ltd. and housed in a barrier system animal facility. After 14 weeks of high-fat diet (HFD) induction, compound 2 was administered at a dose of 25 mg/kg once, and samples were collected after 8 hours to detect the level of 20-HETE. A solvent control group was also set up simultaneously, with 3 animals per group.

Chain of recombinant CYP4A11 (rCYP4A11) (Q02928 5-519): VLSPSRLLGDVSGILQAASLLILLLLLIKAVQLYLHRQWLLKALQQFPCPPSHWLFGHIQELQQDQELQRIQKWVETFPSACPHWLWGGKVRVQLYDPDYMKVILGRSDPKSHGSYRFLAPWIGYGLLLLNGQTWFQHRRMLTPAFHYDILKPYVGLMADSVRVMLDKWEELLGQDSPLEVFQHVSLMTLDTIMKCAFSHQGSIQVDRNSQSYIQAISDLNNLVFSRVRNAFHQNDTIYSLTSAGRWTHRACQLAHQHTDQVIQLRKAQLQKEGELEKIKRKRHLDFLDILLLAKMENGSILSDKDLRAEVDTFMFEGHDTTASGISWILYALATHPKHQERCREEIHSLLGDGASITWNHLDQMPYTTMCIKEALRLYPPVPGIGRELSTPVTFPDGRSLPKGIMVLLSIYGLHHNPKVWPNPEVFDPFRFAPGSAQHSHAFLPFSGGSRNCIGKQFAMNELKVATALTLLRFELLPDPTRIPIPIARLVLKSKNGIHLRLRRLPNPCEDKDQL

In data set [1], `O=C1CCCN1CC1CCN(c2ccc(-c3cn[nH]c3)cc2F)CC1` [Compound 2, 1-((1-(2-fluoro-4-(1H-pyrazol-4-yl)phenyl)piperidin-4-yl)methyl)pyrrolidin-2-one] had a concentration for half-maximal inhibition (IC50) of 28.7 nM. Also, the “HLM (% inh @ 500 nM)” value in data set [1] (500 nM) turned out to be 79.50%. Besides, the 50% inhibitory concentration (IC50) in data set [2] is 1340 nM. Further, the half-inhibitory concentration (IC50) in data set [3] came out at 33.2 nM. In data set [4], the “absorption and blood exposure after oral administration (in words)” value is “well absorbed and exhibit high blood exposure”. Moreover, in data set [4] (male, SD, rat, plasma), the AUC(0-inf) stood at 120 µg·h/mL, the highest level (Cmax) was 10100 ng/mL, the Tmax is 3.33 h and the half-life is 5.2 h. In addition, in data set [4] (male, SD, rat, plasma, read-out: AUC0-24), the AUC(0-t) came out at 115 µg·h/mL. Moreover, the “maximum weight loss effect, decrease compared to pre-administration weight” value in data set [5] (30 mg/kg orally once daily, after 6 weeks) is “approximately 36%”. Further, the food intake entry in data set [5] (30 mg/kg orally once daily, returned to control level in the 6th week) was “slightly decreased”. Moreover, in data set [5] (7 weeks semaglutide, then switched to compound 2 for 7 weeks), the “body weight decrease, of pre-administration weight” value is 33.6%. The “weight loss effect compared with semaglutide” value in data set [5] (DIO mouse model) was “greater weight loss effect than semaglutide”. The “20-HETE levels in the liver, kidneys, and brain tissues compared to the solvent control group” value in data set [6] is “varying degrees of decrease”. Also, in data set [7], the “20-HETE levels in the liver, kidneys, and brain tissues compared to the solvent control group” value was “varying degrees of decrease”.

The IC50 is the concentration that gives 50% inhibition. As usually defined, the AUC(0-inf) is the area under the concentration-time curve extrapolated to infinity. Low readings indicate less exposure, high ones more exposure. Usually Cmax stands for the maximum level reached in the sampled fluid or tissue. For orientation: Tmax means the time from dosing to the highest level. A word on the half-life: it is the time needed for the level to fall by half in the phase considered. A higher half-life goes with slow loss.
